Reference: the NIST ThermoML archive (doi:10.1016/j.jct.2019.02.011)
Numbers after ± are expanded uncertainties.

Assay: xn = mol fraction of the nth substance listed
Settings: 293.15 K, Liquid, Vibrating tube method

Structure (SMILES): COC(=O)OC [dimethyl carbonate] + CO
- mass density (10000 kPa, x1 = 0.25): 916.63 ± 1.4 kg/m3
- mass density (10000 kPa, x1 = 0.3004): 934.21 ± 1.4 kg/m3
- mass density (10000 kPa, x1 = 0.3426): 947.86 ± 1.5 kg/m3
- mass density (10000 kPa, x1 = 0.3984): 964.54 ± 1.5 kg/m3
- mass density (10000 kPa, x1 = 0.4514): 979.07 ± 1.5 kg/m3
- mass density (10000 kPa, x1 = 0.5054): 992.67 ± 1.5 kg/m3
- mass density (10000 kPa, x1 = 0.5509): 1003.27 ± 1.5 kg/m3
- mass density (10000 kPa, x1 = 0.6002): 1013.92 ± 1.5 kg/m3
- mass density (10000 kPa, x1 = 0.6469): 1023.3 ± 1.5 kg/m3
- mass density (10000 kPa, x1 = 0.6993): 1033.07 ± 1.5 kg/m3
- mass density (10000 kPa, x1 = 0.7496): 1041.86 ± 1.5 kg/m3
- mass density (10000 kPa, x1 = 0.799): 1050.01 ± 1.5 kg/m3
- mass density (10000 kPa, x1 = 0.837): 1055.93 ± 1.5 kg/m3
- mass density (10000 kPa, x1 = 0.9093): 1066.58 ± 1.6 kg/m3
- mass density (10000 kPa, x1 = 0.9239): 1068.62 ± 1.6 kg/m3
- mass density (10000 kPa, x1 = 0.9575): 1073.25 ± 1.6 kg/m3
- mass density (10000 kPa, x1 = 0.9861): 1077.09 ± 1.6 kg/m3
- mass density (10000 kPa, x1 = 1): 1078.93 ± 0.58 kg/m3
- mass density (15000 kPa, x1 = 0.0253): 819.01 ± 1.4 kg/m3
- mass density (15000 kPa, x1 = 0.0503): 832.64 ± 1.4 kg/m3
- mass density (15000 kPa, x1 = 0.0745): 845.15 ± 1.4 kg/m3
- mass density (15000 kPa, x1 = 0.101): 858.22 ± 1.4 kg/m3
- mass density (15000 kPa, x1 = 0.1502): 880.67 ± 1.4 kg/m3
- mass density (15000 kPa, x1 = 0.2059): 903.9 ± 1.4 kg/m3
- mass density (15000 kPa, x1 = 0.25): 920.72 ± 1.4 kg/m3
- mass density (15000 kPa, x1 = 0.3004): 938.3 ± 1.4 kg/m3
- mass density (15000 kPa, x1 = 0.3426): 951.96 ± 1.5 kg/m3
- mass density (15000 kPa, x1 = 0.3984): 968.64 ± 1.5 kg/m3
- mass density (15000 kPa, x1 = 0.4514): 983.17 ± 1.5 kg/m3
- mass density (15000 kPa, x1 = 0.5054): 996.78 ± 1.5 kg/m3
- mass density (15000 kPa, x1 = 0.5509): 1007.38 ± 1.5 kg/m3
- mass density (15000 kPa, x1 = 0.6002): 1018.04 ± 1.5 kg/m3
- mass density (15000 kPa, x1 = 0.6469): 1027.41 ± 1.5 kg/m3
- mass density (15000 kPa, x1 = 0.6993): 1037.19 ± 1.5 kg/m3
- mass density (15000 kPa, x1 = 0.7496): 1045.98 ± 1.5 kg/m3
- mass density (15000 kPa, x1 = 0.799): 1054.09 ± 1.5 kg/m3
- mass density (15000 kPa, x1 = 0.837): 1060.01 ± 1.5 kg/m3
- mass density (15000 kPa, x1 = 0.9093): 1070.66 ± 1.6 kg/m3
- mass density (15000 kPa, x1 = 0.9239): 1072.7 ± 1.6 kg/m3
- mass density (15000 kPa, x1 = 0.9575): 1077.33 ± 1.6 kg/m3
- mass density (15000 kPa, x1 = 0.9861): 1081.17 ± 1.6 kg/m3
- mass density (15000 kPa, x1 = 1): 1083.01 ± 0.59 kg/m3
- mass density (20000 kPa, x1 = 0.0253): 822.93 ± 1.4 kg/m3
- mass density (20000 kPa, x1 = 0.0503): 836.57 ± 1.4 kg/m3
- mass density (20000 kPa, x1 = 0.0745): 849.09 ± 1.4 kg/m3
- mass density (20000 kPa, x1 = 0.101): 862.17 ± 1.4 kg/m3
- mass density (20000 kPa, x1 = 0.1502): 884.64 ± 1.4 kg/m3
- mass density (20000 kPa, x1 = 0.2059): 907.88 ± 1.4 kg/m3
- mass density (20000 kPa, x1 = 0.25): 924.71 ± 1.4 kg/m3
- mass density (20000 kPa, x1 = 0.3004): 942.31 ± 1.4 kg/m3
- mass density (20000 kPa, x1 = 0.3426): 955.98 ± 1.5 kg/m3
- mass density (20000 kPa, x1 = 0.3984): 972.68 ± 1.5 kg/m3
- mass density (20000 kPa, x1 = 0.4514): 987.22 ± 1.5 kg/m3
- mass density (20000 kPa, x1 = 0.5054): 1000.83 ± 1.5 kg/m3
- mass density (20000 kPa, x1 = 0.5509): 1011.44 ± 1.5 kg/m3
- mass density (20000 kPa, x1 = 0.6002): 1022.11 ± 1.5 kg/m3
- mass density (20000 kPa, x1 = 0.6469): 1031.49 ± 1.5 kg/m3
- mass density (20000 kPa, x1 = 0.6993): 1041.28 ± 1.5 kg/m3
- mass density (20000 kPa, x1 = 0.7496): 1050.08 ± 1.5 kg/m3
- mass density (20000 kPa, x1 = 0.799): 1058.13 ± 1.5 kg/m3
- mass density (20000 kPa, x1 = 0.837): 1064.06 ± 1.6 kg/m3
- mass density (20000 kPa, x1 = 0.9093): 1074.72 ± 1.6 kg/m3
- mass density (20000 kPa, x1 = 0.9239): 1076.76 ± 1.6 kg/m3
- mass density (20000 kPa, x1 = 0.9575): 1081.4 ± 1.6 kg/m3
- mass density (20000 kPa, x1 = 0.9861): 1085.23 ± 1.6 kg/m3
- mass density (20000 kPa, x1 = 1): 1087.08 ± 0.6 kg/m3
- mass density (25000 kPa, x1 = 0.0253): 826.85 ± 1.4 kg/m3
- mass density (25000 kPa, x1 = 0.0503): 840.49 ± 1.4 kg/m3
- mass density (25000 kPa, x1 = 0.0745): 853.02 ± 1.4 kg/m3
- mass density (25000 kPa, x1 = 0.101): 866.1 ± 1.4 kg/m3
- mass density (25000 kPa, x1 = 0.1502): 888.56 ± 1.4 kg/m3
- mass density (25000 kPa, x1 = 0.2059): 911.86 ± 1.4 kg/m3
- mass density (25000 kPa, x1 = 0.25): 928.69 ± 1.4 kg/m3
- mass density (25000 kPa, x1 = 0.3004): 946.29 ± 1.5 kg/m3
- mass density (25000 kPa, x1 = 0.3426): 959.96 ± 1.5 kg/m3
- mass density (25000 kPa, x1 = 0.3984): 976.66 ± 1.5 kg/m3
- mass density (25000 kPa, x1 = 0.4514): 991.16 ± 1.5 kg/m3
- mass density (25000 kPa, x1 = 0.5054): 1004.77 ± 1.5 kg/m3
- mass density (25000 kPa, x1 = 0.5509): 1015.38 ± 1.5 kg/m3
- mass density (25000 kPa, x1 = 0.6002): 1026.05 ± 1.5 kg/m3
- mass density (25000 kPa, x1 = 0.6469): 1035.43 ± 1.5 kg/m3
- mass density (25000 kPa, x1 = 0.6993): 1045.22 ± 1.5 kg/m3
- mass density (25000 kPa, x1 = 0.7496): 1054.02 ± 1.5 kg/m3
- mass density (25000 kPa, x1 = 0.799): 1062.08 ± 1.6 kg/m3
- mass density (25000 kPa, x1 = 0.837): 1068.01 ± 1.6 kg/m3
- mass density (25000 kPa, x1 = 0.9093): 1078.67 ± 1.6 kg/m3
- mass density (25000 kPa, x1 = 0.9239): 1080.71 ± 1.6 kg/m3
- mass density (25000 kPa, x1 = 0.9575): 1085.34 ± 1.6 kg/m3
- mass density (25000 kPa, x1 = 0.9861): 1089.18 ± 1.6 kg/m3
- mass density (25000 kPa, x1 = 1): 1091.03 ± 0.61 kg/m3
- mass density (30000 kPa, x1 = 0.0253): 830.45 ± 1.4 kg/m3
- mass density (30000 kPa, x1 = 0.0503): 844.1 ± 1.4 kg/m3
- mass density (30000 kPa, x1 = 0.0745): 856.63 ± 1.4 kg/m3
- mass density (30000 kPa, x1 = 0.101): 869.72 ± 1.4 kg/m3
- mass density (30000 kPa, x1 = 0.1502): 892.2 ± 1.4 kg/m3
- mass density (30000 kPa, x1 = 0.2059): 915.51 ± 1.4 kg/m3
- mass density (30000 kPa, x1 = 0.25): 932.36 ± 1.4 kg/m3
- mass density (30000 kPa, x1 = 0.3004): 949.97 ± 1.5 kg/m3
- mass density (30000 kPa, x1 = 0.3426): 963.65 ± 1.5 kg/m3
- mass density (30000 kPa, x1 = 0.3984): 980.36 ± 1.5 kg/m3
- mass density (30000 kPa, x1 = 0.4514): 994.86 ± 1.5 kg/m3
- mass density (30000 kPa, x1 = 0.5054): 1008.44 ± 1.5 kg/m3
- mass density (30000 kPa, x1 = 0.5509): 1019.05 ± 1.5 kg/m3
- mass density (30000 kPa, x1 = 0.6002): 1029.73 ± 1.5 kg/m3
- mass density (30000 kPa, x1 = 0.6469): 1039.12 ± 1.5 kg/m3
- mass density (30000 kPa, x1 = 0.6993): 1048.91 ± 1.5 kg/m3
- mass density (30000 kPa, x1 = 0.7496): 1057.72 ± 1.5 kg/m3
- mass density (30000 kPa, x1 = 0.799): 1065.78 ± 1.6 kg/m3
- mass density (30000 kPa, x1 = 0.837): 1071.71 ± 1.6 kg/m3
- mass density (30000 kPa, x1 = 0.9093): 1082.38 ± 1.6 kg/m3
- mass density (30000 kPa, x1 = 0.9239): 1084.42 ± 1.6 kg/m3
- mass density (30000 kPa, x1 = 0.9575): 1089.06 ± 1.6 kg/m3
- mass density (30000 kPa, x1 = 0.9861): 1092.9 ± 1.6 kg/m3
- mass density (30000 kPa, x1 = 1): 1094.75 ± 0.63 kg/m3
- mass density (35000 kPa, x1 = 0.0253): 833.84 ± 1.4 kg/m3
- mass density (35000 kPa, x1 = 0.0503): 847.49 ± 1.4 kg/m3
- mass density (35000 kPa, x1 = 0.0745): 860.04 ± 1.4 kg/m3
- mass density (35000 kPa, x1 = 0.101): 873.13 ± 1.4 kg/m3
- mass density (35000 kPa, x1 = 0.1502): 895.68 ± 1.4 kg/m3
- mass density (35000 kPa, x1 = 0.2059): 919 ± 1.4 kg/m3
- mass density (35000 kPa, x1 = 0.25): 935.81 ± 1.4 kg/m3
- mass density (35000 kPa, x1 = 0.3004): 953.48 ± 1.5 kg/m3
- mass density (35000 kPa, x1 = 0.3426): 967.16 ± 1.5 kg/m3
- mass density (35000 kPa, x1 = 0.3984): 983.88 ± 1.5 kg/m3
- mass density (35000 kPa, x1 = 0.4514): 998.4 ± 1.5 kg/m3
- mass density (35000 kPa, x1 = 0.5054): 1011.98 ± 1.5 kg/m3
- mass density (35000 kPa, x1 = 0.5509): 1022.6 ± 1.5 kg/m3
- mass density (35000 kPa, x1 = 0.6002): 1033.28 ± 1.5 kg/m3
- mass density (35000 kPa, x1 = 0.6469): 1042.68 ± 1.5 kg/m3
- mass density (35000 kPa, x1 = 0.6993): 1052.48 ± 1.5 kg/m3
- mass density (35000 kPa, x1 = 0.7496): 1061.24 ± 1.6 kg/m3
- mass density (35000 kPa, x1 = 0.799): 1069.31 ± 1.6 kg/m3
- mass density (35000 kPa, x1 = 0.837): 1075.29 ± 1.6 kg/m3
- mass density (35000 kPa, x1 = 0.9093): 1085.91 ± 1.6 kg/m3
- mass density (35000 kPa, x1 = 0.9239): 1087.96 ± 1.6 kg/m3
